Patent US20110071158A1, “NEW COMPOUNDS” (BOEHRINGER INGELHEIM INTERNATIONAL GMBH, priority 2009, published 2011)

Experiments:
[1] = biological target: T1, PTK2 enzyme (Homo sapiens, UniProt Q05397); assay: PTK2 enzyme test, Assay 2 (DELFIA, poly-Glu-Tyr substrate, antibody PT66); type: biochemical; conditions: Assay 2 (values marked *); 1 h pre-incubation, 0.5% DMSO
T1 construct: purchased Invitrogen PV3832
Excerpt: This test uses active PTK2 enzyme (Invitrogen Code PV3832) and poly-Glu-Tyr (4:1, Sigma P-0275) as the kinase substrate. The kinase activity is detected by means of the phosphorylation of the substrate in a DELFIA™ assay. The phosphorylated substrate is detected with the europium-labelled phosphotyrosine antibody PT66 (Perkin Elmer, No.: AD0040).
In order to determine concentration-activity curves with PTK2-inhibitors the compounds are serially diluted first of all in 10% DMSO/H2O and then in kinase dilution buffer (20 mM TRIS/HCl pH 7.5, 0.1 mM EDTA, 0.1 mM EGTA, 0.286 mM sodium orthovanadate, 10% glycerol with the addition of freshly prepared BSA (fraction V, 1 mg/mL) and DTT (1 mM)) and 10 μL of each dilution are dispensed per well in a 96-well microtitre plate (clear U-shaped base plate, Greiner No. 650101) (the inhibitors are tested in duplicates) and mixed with 10 μL/well of PTK2 kinase (0.01 μg/well). PTK2 kinase is diluted accordingly beforehand with kinase dilution buffer. The diluted PTK2 inhibitor and the PTK2 kinase are pre-incubated for 1 h at RT and shaken at 500 revolutions per min. Then 10 μL/well poly-Glu-Tyr substrate (25 μg/well poly-Glu-Tyr, 0.05 μg/well biotinylated poly-Glu-Tyr dissolved in 250 mM TRIS/HCl pH 7.5, 9 mM DTT) are added. The reaction is started by the addition of 20 μL of ATP Mix (30 mM TRIS/HCl pH 7.5, 0.02% Brij, 0.2 mM sodium orthovanadate, 10 mM magnesium acetate, 0.1 mM EGTA, 1× phosphatase inhibitor cocktail 1 (Sigma, No.: P2850), 50 μM ATP (Sigma, No.: A3377; 15 mM stock solution))—the final concentration of DMSO is 0.5%. After 1 h kinase reaction (the plates are shaken at 500 rpm), the reaction is stopped by the addition of 12 μL/well of 100 mM EDTA, pH 8, and shaken for a further 5 min at RT (500 U/min). 55 μL of the reaction mixture are transferred into a streptavidin plate (Strepta Well High Bind (transparent, 96-well) made by Roche, No.: 11989685001) and incubated for 1 h at RT (shaking at 500 rpm). Then the microtitre plate is washed five times with 200 μL/well D-PBS (Invitrogen, No. 14190). 100 μL of a solution containing DELFIA Eu-N1 Anti-Phosphotyrosine PT66 antibody (Perkin Elmer, No.: AD0040, diluted 1:9000 in DELFIA test buffer (Perkin Elmer, No.: 1244-111)) is then added and it is incubated for 1 h at RT (shaking at 500 rpm). Then the plate is washed five times with 200 μL/well DELFIA washing buffer (Perkin Elmer, No.: 1244-114), 200 μL/well strengthening solution (Perkin Elmer, No.: 1244-105) is added and the whole is incubated for 10 min at RT (shaking at 300 rpm).
The time-delayed europium fluorescence is then measured in a microtitre plate reader (Victor, Perkin Elmer). The positive control consists of wells that contain solvent (0.5% DMSO in test buffer) and display uninhibited kinase activity. Wells that contain test buffer instead of enzyme act as a control for the background kinase activity.
The IC50 values are determined from concentration-activity analyses by iterative calculation using a sigmoid curve analysis algorithm (FIFTY, based on Graph PAD Prism Version 3.03) with a variable Hill coefficient.

[2] = biological target: T2, Xenopus laevis Aurora B/INCENP complex (Xenopus laevis, UniProt Q6DE08); assay: Aurora-B kinase assay (radioactive enzyme inhibition); type: biochemical
T2 construct: equipped at the N-terminal position with a GST tag (amino acids 60-361); GST (N, cleaved yes); made in house; host or cells: E. coli BL21 (DE3)
Excerpt: A radioactive enzyme inhibition assay was developed using E. coli-expressed recombinant Xenopus laevis Aurora B wild-type protein equipped at the N-terminal position with a GST tag (amino acids 60-361) in a complex with Xenopus laevis INCENP (amino acids 790-847), which is obtained from bacteria and purified. In equivalent manner a Xenopus laevis Aurora B mutant (G96V) in a complex with Xenopus laevis INCENP^790-847 may also be used.
The coding sequence for Aurora-B^60-361 from Xenopus laevis is cloned into a modified version of pGEX-6T (Amersham Biotech) via BamHI and SalI cutting sites. The vector contains two cloning cassettes which are separated by a ribosomal binding site, allowing bi-cistronic expression. In this configuration Xenopus laevis Aurora B is expressed by the first cassette, and the Xenopus laevis INCENP^790-847 is expressed by the second cassette. The resulting vector is pAUB-IN^847.
First of all the E. coli strain BL21 (DE3) is co-transformed with pUBS520 helper plasmid and pAUB-IN^847, after which protein expression is induced using 0.3 mM IPTG at an OD600 of 0.45-0.7. The expression is then continued for approx. 12-16 h at 23-25° C. with agitation.
The bacteria are then removed by centrifuging and the pellet is lysed in lysis buffer (50 mM Tris/Cl pH 7.6, 300 mM NaCl, 1 mM DTT, 1 mM EDTA, 5% glycerol, Roche Complete Protease Inhibitor tablets) using ultrasound, using 20-30 mL lysis buffer per litre of E. coli culture. The lysed material is freed from debris by centrifugation (12000 rpm, 45-60 min, JA20 rotor). The supernatant is incubated with […] of equilibrated GST Sepharose Fast Flow (Amersham Biosciences) per litre of E. coli culture for 4-5 h at 4° C. Then the column material is washed with 30 volumes of lysis buffer and then equilibrated with 30 volumes of cleavage buffer (50 mM Tris/Cl pH 7.6, 150 mM NaCl, 1 mM DTT, 1 mM EDTA). To cleave the GST tag from Aurora B, 10 units of Prescission Protease (Amersham Biosciences) are used per milligram of substrate and the mixture is incubated for 16 h at 4° C. The supernatant which contains the cleavage product is loaded onto a 6 mL Resource Q column (Amersham Biosciences) equilibrated with ion exchange buffer (50 mM Tris/Cl pH 7.6, 150 mM NaCl, 1 mM DTT, 1 mM EDTA). The Aurora B/INCENP complex is caught as it flows through, then concentrated and loaded onto a Superdex 200 size exclusion chromatography (SEC) column equilibrated with SEC buffer (10 mM Tris/Cl pH 7.6, 150 mM NaCl, 1 mM DTT, 1 mM EDTA). Fractions which contain the AuroraB/INCENP complex are collected and concentrated using Vivaspin concentrators (molecular weight exclusion 3000-5000 Da) to a final concentration of 12 mg/mL. Aliquots (e.g. 240 ng/μL) for kinase assays are transferred from this stock solution into freezing buffer (50 mM Tris/Cl pH 8.0, 150 mM NaCl, 0.1 mM EDTA, 0.03% Brij-35, 10% glycerol, 1 mM DTT) and stored at −80° C.
Test substances are placed in a polypropylene dish (96 wells, Greiner #655 201), in order to cover a concentration frame of 10 μM-0.0001 μM. The final concentration of DMSO in the assay is 5%. 30 μL of protein mix (50 mM Tris/Cl pH 7.5, 25 mM MgCl2, 25 mM NaCl, 167 μM ATP, 10 ng Xenopus laevis Aurora B/INCENP complex in freezing buffer) are pipetted into the 10 μl of test substance provided in 25% DMSO and this is incubated for 15 min at RT. Then 10 μL of peptide mix (100 mM Tris/Cl pH 7.5, 50 mM MgCl2, 50 mM NaCl, 5 μM NaF, 5 μM DTT, 1 μCi gamma-P33-ATP [Amersham], 50 μM substrate peptide [biotin-EPLERRLSLVPDS or multimers thereof, or biotin-EPLERRLSLVPKM or multimers thereof, or biotin-[…]]) are added. The reaction is incubated for 75 min (ambient temperature) and stopped by the addition of 180 μL of 6.4% trichloroacetic acid and incubated for 20 min on ice. […]

T2 sequence (Q6DE08 60-361): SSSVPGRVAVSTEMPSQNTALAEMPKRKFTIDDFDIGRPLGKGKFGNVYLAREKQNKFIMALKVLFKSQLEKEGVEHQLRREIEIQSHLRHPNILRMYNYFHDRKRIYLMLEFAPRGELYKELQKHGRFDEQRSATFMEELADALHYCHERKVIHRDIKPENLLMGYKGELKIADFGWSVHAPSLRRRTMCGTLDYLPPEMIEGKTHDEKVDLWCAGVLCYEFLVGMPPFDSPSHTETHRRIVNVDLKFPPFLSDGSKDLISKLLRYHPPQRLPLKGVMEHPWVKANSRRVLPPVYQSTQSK
T2 sequence (O13024 790-847 partner): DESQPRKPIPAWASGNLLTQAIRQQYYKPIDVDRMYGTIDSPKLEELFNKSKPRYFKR
T1 sequence (Q05397 whole entry): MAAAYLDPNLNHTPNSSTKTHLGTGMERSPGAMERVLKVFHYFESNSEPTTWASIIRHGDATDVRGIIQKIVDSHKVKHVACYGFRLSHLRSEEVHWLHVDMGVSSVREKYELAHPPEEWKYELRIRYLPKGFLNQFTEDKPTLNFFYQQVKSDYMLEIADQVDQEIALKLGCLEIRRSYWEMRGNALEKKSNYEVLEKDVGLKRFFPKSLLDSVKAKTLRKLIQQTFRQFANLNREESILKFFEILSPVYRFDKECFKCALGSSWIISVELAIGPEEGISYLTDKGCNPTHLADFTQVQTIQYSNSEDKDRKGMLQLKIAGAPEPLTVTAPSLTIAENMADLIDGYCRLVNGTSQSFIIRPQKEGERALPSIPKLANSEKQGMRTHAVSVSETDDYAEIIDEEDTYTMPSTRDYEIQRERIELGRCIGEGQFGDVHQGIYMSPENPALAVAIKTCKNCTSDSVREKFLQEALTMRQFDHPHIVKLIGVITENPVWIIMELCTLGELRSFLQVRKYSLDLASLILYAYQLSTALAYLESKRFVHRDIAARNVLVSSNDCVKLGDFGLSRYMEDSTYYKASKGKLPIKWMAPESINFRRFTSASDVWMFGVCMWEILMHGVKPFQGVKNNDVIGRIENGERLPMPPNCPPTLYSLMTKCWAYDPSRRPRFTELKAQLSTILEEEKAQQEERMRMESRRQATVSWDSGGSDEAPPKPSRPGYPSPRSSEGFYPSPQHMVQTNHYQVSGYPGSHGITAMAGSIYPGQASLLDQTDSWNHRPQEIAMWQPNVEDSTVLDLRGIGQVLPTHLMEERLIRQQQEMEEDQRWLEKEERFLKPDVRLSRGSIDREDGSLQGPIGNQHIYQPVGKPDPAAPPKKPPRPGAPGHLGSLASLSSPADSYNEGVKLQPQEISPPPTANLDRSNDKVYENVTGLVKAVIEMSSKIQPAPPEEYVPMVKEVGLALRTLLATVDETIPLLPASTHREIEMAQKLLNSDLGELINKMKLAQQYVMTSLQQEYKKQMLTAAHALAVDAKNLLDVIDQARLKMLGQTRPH

| IC50 [1] | IC50 [2] | SMILES |
| --- | --- | --- |
| 0.32 nM | 641 nM | COc1cc(C(=O)NC2CCOCC2)c(C)cc1Nc1ncc(C(F)(F)F)c(N[C@@H]2CCC[C@H]2NS(C)(=O)=O)n1 [Example I-195] |
| 0.41 nM | 422 nM | C#CCNC(=O)c1cc(OC)c(Nc2ncc(C(F)(F)F)c(N[C@@H]3CCC[C@H]3NS(C)(=O)=O)n2)cc1C [Example I-138] |
| 0.29 nM | 1010 nM | COc1cc(C(=O)NC2CCN(C)CC2)c(Cl)cc1Nc1ncc(C(F)(F)F)c(N[C@@H]2CCC[C@H]2N(C)S(C)(=O)=O)n1 [Example I-131] |
| 0.76 nM | > 9000 nM | COc1ccc(C(=O)NCCN(C)C)cc1Nc1ncc(C(F)(F)F)c(N[C@@H]2CCCC[C@H]2N(C)S(C)(=O)=O)n1 [Example I-144] |
| 0.44 nM | 1070 nM | CNC(=O)c1cc(OC)c(Nc2ncc(C(F)(F)F)c(N[C@@H]3CCCC[C@H]3NS(C)(=O)=O)n2)cc1Cl [Example I-137] |
| 0.41 nM | 1590 nM | CNC(=O)c1cc(OC)c(Nc2ncc(C(F)(F)F)c(N[C@@H]3CCCC[C@H]3NS(C)(=O)=O)n2)cc1C [Example I-152] |

Further lines, the compound ahead of its results:

| SMILES | IC50 [1] | IC50 [2] |
| --- | --- | --- |
| COc1cc(C(=O)NC2CCN(C)CC2)c(F)cc1Nc1ncc(Br)c(N[C@@H]2CCC[C@H]2N(C)S(C)(=O)=O)n1 [Example I-142] | 0.5 nM | 311 nM |
| COc1cc(N2CCN(C(C)(C)C)CC2)c(C)cc1Nc1ncc(C(F)(F)F)c(N[C@@H]2CCCC[C@H]2N(C)S(C)(=O)=O)n1 [Example I-158] | 1 nM | > 10000 nM |
| COc1cc(NC(=O)C2CCN(C)CC2)ccc1Nc1ncc(C(F)(F)F)c(N[C@@H]2CCCC[C@H]2N(C)S(C)(=O)=O)n1 [Example I-155] | 0.93 nM | 245 nM |
| CCc1cc(Nc2ncc(C(F)(F)F)c(N[C@@H]3CCC[C@H]3N(C)S(C)(=O)=O)n2)c(OC)cc1N1CCNCC1 [Example I-153] | 0.69 nM | > 10000 nM |
| COc1cc(N2CCN(C(C)(C)C)CC2)c(C)cc1Nc1ncc(C(F)(F)F)c(N[C@@H]2CCC[C@H]2N(C)S(C)(=O)=O)n1 [Example I-140] | 0.86 nM | > 5000 nM |
| COc1cc(N2CCNCC2)c(Cl)cc1Nc1ncc(C(F)(F)F)c(N[C@@H]2CCC[C@H]2N(C)S(C)(=O)=O)n1 [Example I-134] | 0.5 nM | 778 nM |
| COc1cc(NC(=O)[C@H]2CCCN2C)ccc1Nc1ncc(C(F)(F)F)c(N[C@@H]2CCCC[C@H]2N(C)S(C)(=O)=O)n1 [Example I-146] | 0.58 nM | 413 nM |
| COc1cc(C(=O)NC2CCN(C)CC2)c(F)cc1Nc1ncc(Cl)c(N[C@@H]2CCC[C@H]2N(C)S(C)(=O)=O)n1 [Example I-127, 4-{5-chloro-4-[(1R,2R)-2-(methanesulphonyl-methyl-amino)-cyclopentylamino]-pyrimidin-2-ylamino}-2-fluoro-5-methoxy-N-(1-methyl-piperidin-4-yl)-benzamide] | 0.53 nM | 417 nM |
| COCCN1CCC(NC(=O)c2cc(OC)c(Nc3ncc(Cl)c(N[C@@H]4CCC[C@H]4N(C)S(C)(=O)=O)n3)cc2Cl)CC1 [Example I-166] | 0.49 nM | 1140 nM |
